Results on 1 molecule are retold here after US11905504B2, “Body cube and process for culturing tissue” (Government of the United States of America, as represented …, priority 2020, dated 2024).

Entries after “also recorded” stand apart in the source; their conditions may differ.

The test system of data set [1] is HepG2/C3A liver cells. Description: Cell viability stain of liver cells after 72 h co-culture in the body cube. The format is cell-based, human. The note with it: 72 h four-tissue co-culture in body cube, 80 μL recirculating medium; compared to control without drug.
Data set [2] concerns HepG2/C3A liver cells. The format is cell-based. The procedure:
After 24 h, the cell-loaded 3D scaffolds were aseptically transferred into the tissue chambers of the appropriate tissues chip. The chips were then placed on top of each other, so that the back of one tissue chamber closed the opening of the tissue chip below it. The tissue chip stack was then inserted into the holder. The two reservoirs of the cube were filled with 32.5 μL of EMEM (containing a volume fraction of 10% FBS) each, and the device was placed onto a rocker platform that tilted back and forth at an angle of 45°. The platform changed its tilt from 45° to −45° every 60 s continuously for 72 h. Culture medium was collected and replaced with fresh medium after 1 h, 16 h, 24 h, 40 h, 48 h, and 64 h. The total amount of blood surrogate (i.e. the amount of cell culture medium that we consider blood surrogate) inside the system consisted of 2×32.5 μL (medium in the reservoirs), plus 15 μL (medium inside the microfluidic channels that deliver medium to the tissue culture chambers).
To estimate cell death during co-culture, we measured AST concentrations in the cell culture medium recovered from the devices after 1 h, 16 h, 40 h and 64 h of co-culture. The AST activity was measured with an assay kit. Briefly, standard samples and medium samples were added to the 96 well plate. We then added 100 μL of working solution to each well and mixed both solutions by gently tapping the plate. The plate was then incubated inside a plate reader in the dark, at 37° C. […] We then selected the initial absorbance value inside the linear range and calculated the AST concentrations using the protocol given in the kit. The results are expressed as μg per million cells produced in relation to a 1 h baseline measurement.
Similar to the baseline experiments described above, we recovered cell cultures after 72 h of co-culture from the device.

The test system of data set [3] is HepG2/C3A liver cells. The data set can be described thus: Urea production in collected cell culture medium of the body cube. The format is cell-based, human.
In data set [4] the test system is HepG2/C3A liver cells. Description: Albumin synthesis by ELISA in cell culture medium of the body cube. To be noted: drugs added to the cube; compared to control without drug. The data set is classed as cell-based, human. A general note: ELISA stands for enzyme-linked immunosorbent assay.

In the case of `Cc1c(C)c2c(c(C)c1O)CCC(C)(COc1ccc(CC3SC(=O)NC3=O)cc1)O2` (stereo not shown) [troglitazone], in data set [1], the “cell viability in the liver chamber (viability stain, fluorescence images)” value is given as “significant liver damage; also recorded: expected cell death; also recorded: significantly lowered cell viability”. For the same molecule, the “cytosolic enzymes released vs cultures not exposed to drugs” value in data set [2] (after 40 h of exposure) is “significantly larger amounts”. Also, the “cytosolic enzyme concentration in the medium vs control cultures” value in data set [2] (after 48 h) was “similar”. Also, the “AST in the cell culture medium” value in data set [2] (body cube co-culture, compared to control without drug) is listed as “significantly higher; also recorded: temporary increase of AST”. Further, in data set [3] (body cube co-culture challenged with drug), the “metabolic activity of the tissues” value is on record as “decrease in metabolic activity”. For the same molecule, the urea production entry in data set [3] (drugs added to the cube, compared to control without drug) is listed as “decreased”. Further, in data set [4], the albumin production result is “not albumin production was decreased”.
